Patent US20210213135A1 (Purdue Research Foundation, priority 2018, published 2021)
Bridges are numbered along the chain shown (N, C = ends). Primed or numbered codes have the meaning given here. Where no end group is shown, it is not given here. [ ]: non-standard residue; d: D form. mp4″ = 4 mini PEG linker (mini-PEG spacer); PEG10′ = polyethylene glycol 10 linker; minipeg = minipeg spacer; Dap = NC[C@H](N)C(=O)O

What was measured:
[1] = tested on: Swiss Webster fracture-bearing mice (fracture callus); assay: micro CT of the fracture callus in the femur fracture model; type: in vivo
[2] = tested on: Swiss Webster fracture-bearing mice (healed femur); assay: postmortem 4 point bend of the healed femur; type: in vivo
From the text: All in vivo data included herein are from Swiss Webster mice. All mice received an osteotomy on their right femur and received subcutaneous drug administration daily for either 2,3 or 4 weeks, or 17 days, as indicated, for each compound. 1× concentration represents 1 nmol/day, 10× represents 10 nmol/day, 100× represents 100 nmol/day most studies have an n of 5.
The term “Peak Load” means a postmortem 4 point bend of the healed femur. Peak load represents the maximum force the healed femur withstood before it refractured.
The targeted conjugates were synthesized using standard Fmoc solid-phase peptide synthesis, as described above. To ensure the conjugates' activity, mouse pre-osteoblast ([…]) cells were treated with the targeted and untargeted compounds for three days at concentrations from 1 pM to 100 nM. After three days of treatment, the cells were harvested, and the RNA was purified from the cells. Expression levels of ALP, RUNx2 (transcription factor for osteoblast differentiation), osterix (OSX), osteopontin (OPN), collagen 1A (Col-1A), OPG, RANKL, sclerostin gene (SOST), and OC were quantified via quantitative reverse transcription polymerase chain reaction (RT-qPCR). Once the biological activity of the conjugates was confirmed, they were tested in vivo in a fracture model. Aseptic surgical techniques were used to place a 23-gage needle as in intramedullary nail in the femur of anesthetized, 12-week-old Swiss Webster mice for internal fixation before fracture. Femur fractures were induced using a drop weight fracture device from RISystem. The mice received buprenorphine for three days post fracture. The mice were dosed subcutaneously each day for three weeks or 17 days. Fracture healing was assessed using microCT (Scanco Medical Ag). Morphometric parameters were quantified in the 100 widest slices of the fracture callus. Trabecular thickness (Tb.Th.), trabecular spacing (Tb.Sp.), total volume (TV), and volume of calcified callus (BV) were calculated. Fractured femurs were tested for strength in a four-point bend to failure using an Electro Force TestBench (TA Instruments). Lower supports were 10 mm apart on the anterior face of the femur in contact with the proximal and distal diaphysis. Upper supports were 4 mm apart and spanned the entire fracture callus on the diaphysis. Force was applied from the posterior face of the femur with a displacement rate of 0.3 mm/sec. Peak load, yield load, stiffness, displacement post yield, work to fracture, and deformation data were generated. Statistical analysis was performed using a two-way analysis of variance (ANOVA) and a Tukey post-hoc analysis with significance reported at the 95% confidence level. All animal experiments were performed in accordance with protocols approved by Purdue University's Institutional Animal Care and Use Committee (IACUC).

[3] = 2 weeks, 1, 10 and 100 nmol/day
[4] = 3 weeks, 1, 10 and 100 nmol daily s.c., n=5
[5] = 3 weeks, 0.1, 1 and 10 nmol daily s.c.
[6] = 3 weeks, 1 and 10 nmol daily s.c., n=10
[7] = 4 weeks, 1, 10 and 100 nmol/day
[8] = 3 weeks, 0.1, 1 and 10 nmol daily s.c., n=5
[9] = 17 days, 0.1, 1 and 10 nmol daily s.c., n=5
[10] = 17 days, 1, 10 and 100 nmol daily s.c., n=5

## BFP-D10: SEQ ID NO: 1, bone forming peptide conjugated with 10 aspartate acids: DDDDDDDDDDGQGFSYPYKAVFSTQ (BFP D10)
[1]; [3]
  BV/TV: dose dependent manner
  TbSp: dose dependent manner
[2]; after 2 weeks, 100 nmol/day (100×), compared to PBS
  Peak load of fractured femurs: obtained the maximum peak load

## CBD_MP4_(D)E10: SEQ ID NO: 32, 1-28 of osteopontin followed by 4 peg 2 spacers followed by ten d glutamic acids (HNGVFKYRPRYYLYKHAYFYPHLKRFPVQEEEEEEEEEE; 4 PEG2 spacers; D-glutamic acids; CBD _MP4_e10)
[1]; [4]
  BV/TV: raises bone density
  Tbth (trabecular thickness): raises bone quality
[2]; [4]
  Work to fracture: improves bone strength

## CBM D10: SEQ ID NO: 9, collagen binding motif of osteopontin conjugated with 10 aspartate acids
[1]; [5]
  BV/TV: dose dependent manner

## CBM(1-19)_D10: SEQ ID NO: 31, truncated version (1-19) of the collagen binding motif of human osteopontin targeted by D10 (HDDDDDDDDDDGLRSKSKKFRRPDIQYPDA; CBM(1-19)-D10 collagen binding motif)
[1]; [4]
  BV/TV: raises bone density
  Tbth (trabecular thickness): raises bone quality
[2]; [4]
  Max load (peak load): improves bone strength

## CNP D10: SEQ ID NO: 7, C-type Natriuretic peptide conjugated with 10 aspartate acids (HDDDDDDDDDDGLSKGCFGLKLDRIGSMSGLGC; disulfide 17-33)
[1]; 4 weeks, 1 and 10 nmol/day
  BV/TV: dose dependent manner

## CTC_mp4_(D)E10: SEQ ID NO: 21, CTC linked via 4 minipegs to 10 (D) glutamic acids (H[dE][dE][dE][dE][dE][dE][dE][dE][dE][dE][minipeg][minipeg][minipeg][minipeg]IAGVGGEKSGGF)
[1]; [6]
  BV/TV: raises bone density
[2]; [6]
  Max load (peak load): raises bone strength
  Work to fracture: raises bone strength

## CTC_peg10_(D)E10: SEQ ID NO: 20, chemotactic collagen fragment CTC linked via polyethylene glycol 10 to 10 (D) glutamic acids (H[dE][dE][dE][dE][dE][dE][dE][dE][dE][dE][PEG10′]IAGVGGEKSGGF)
[1]; [5]
  BV/TV: raises bone density
[2]; [4]
  Max load (peak load): improves bone strength

## DGEA_mp4_(D)E10: SEQ ID NO: 24, DGEA with Serine and Proline on C terminus, 4 minipeg spacers and ten d glutamic acids (H[dE][dE][dE][dE][dE][dE][dE][dE][dE][dE][minipeg][minipeg][minipeg][minipeg]DGEASP)
[1]; [4]
  BV (bone volume): raises bone mineralization
  BV/TV: raises bone density
[2]; [4]
  Max load (peak load): raises bone strength
  Work to fracture: raises bone strength

## Ghrelin-D10: SEQ ID NO: 5, Ghrelin D10 with Ser-3 replaced with diaminopropionic acid (HG[Dap]FLSPEHQKAQQRKESKKPPAKLQPRDDDDDDDDDD; ends and bridges not checked)
[1]; [7]
  BV/TV: dose dependent manner

## IKVAV_mp4_(D)E10: SEQ ID NO: 26, laminin fragment IKVAV conjugated via 4 minipegs with 10 glutamic acids (H[dE][dE][dE][dE][dE][dE][dE][dE][dE][dE][minipeg][minipeg][minipeg][minipeg]GQAASIKVAVSADR)
[1]; [5]
  BV/TV: raises bone density
[1]; [8]
  BV (bone volume): raises bone mineralization
[2]; [8]
  Max load (peak load): raises bone strength
  Work to fracture: raises bone strength

## LN2_P3_mp4_(D)E10: SEQ ID NO: 27, laminin a2 motif DLTIDDSYWYRI with N terminally attached minipeg 4 spacer and targeting ligand (H[dE][dE][dE][dE][dE][dE][dE][dE][dE][dE][mp4″]DLTIDDSYWYRI)
[1]; [9]
  BV (bone volume): raises bone mineralization
  BV/TV: raises bone density
[2]; [9]
  Max load (peak load): raises bone strength
  Work to fracture: raises bone strength

## MGF D10: SEQ ID NO: 11, Mechano-growth factor with 10 aspartate acids: DDDDDDDDDDYQPPSTNKNTKSQRRKGSTFEEHK (Mechano-growth factor (MGF) D10, an IGF-I fragment)
[1]; 4 weeks, 1 and 10 nmol/day
  BV/TV: dose dependent manner

## ODP D10: SEQ ID NO: 13, Osteopontin-derived peptide conjugated with 10 aspartate acids (DDDDDDDDDD[mp4″]DVDVPDGRGDSLAYG)
[1]; 4 weeks, 1 nmol/day
  BV/TV: healing was reflected as BV/TV

## OGP-D10: SEQ ID NO: 2, osteogenic growth peptide conjugated with 10 aspartate acids: DDDDDDDDDDALKRQGRTLYGFGG (OGP D10)
[1]; 2 weeks, 1 and 100 nmol/day
  BV/TV: dose dependent manner
  TbSp: dose dependent manner
  TbTh: dose dependent manner

## P3_mp4_(D)E10: SEQ ID NO: 29, P3 fragment of bone sialoprotein followed by a 4 minipeg spacer and 10 (D) glutamic acids (HYESENGEPRGDNYRAYEEEEEEEEEE; 4 minipeg spacer; D-glutamic acids; P3_mp4_e10)
[1]; [10]
  BV (bone volume): raises bone mineralization
  BV/TV: raises bone density
[2]; [10]
  Max load (peak load): raises bone strength
  Work to fracture: raises bone strength

## P4 D10: SEQ ID NO: 10, P4 (knuckle epitope fragment of hBMP-2) conjugated with 10 aspartate acids (HKIPKASSVPTELSAISTLYLDDDDDDDDDD; P4 D10-a BMP2 fragment)
[1]; 4 weeks, 1 nmol/day
  BV (bone volume): healing was reflected
[1]; 4 weeks, 1 and 10 nmol/day
  BV/TV: dose dependent manner

## P-15_(D)E10: SEQ ID NO: 22, P15 collagen fragment conjugated with 10 glutamic acids (HGTPGPQGIAGQRGVV[dE][dE][dE][dE][dE][dE][dE][dE][dE][dE])
[1]; [5]
  BV/TV: raises bone density
[2]; [8]
  Max load (peak load): raises bone strength

## P-15_mp4_(D)E10: SEQ ID NO: 23, a P15 fragment connect via 4 peg2 spacers to (D)E10 bone targeting ligand (HGTPGPQGIAGQRGVVEEEEEEEEEE; 4 PEG2 spacers; D-glutamic acids; P15_mp4_e10)
[1]; [4]
  BV (bone volume): raises bone mineralization
  BV/TV: raises bone density
[2]; [4]
  Max load (peak load): raises bone strength
  Work to fracture: raises bone strength

## PHSRN_mp4_(D)E10: SEQ ID NO: 28, fibronectin peptide PHSRN with (D)e10 targeting ligand attached to N terminus via minipeg spacer (H[dE][dE][dE][dE][dE][dE][dE][dE][dE][dE][mp4″]PHSRN)
[1]; [9]
  BV (bone volume): raises bone mineralization
  BV/TV: raises bone density
[2]; [9]
  Max load (peak load): raises bone strength
  Work to fracture: raises bone strength

## Preptin D10: SEQ ID NO: 3, Preptin conjugated with 10 aspartate acids (HDVSTSQAVLPDDFPRYDDDDDDDDDD; Preptin D10)
[1]; [3]
  BV (bone volume): dose dependent manner
  BV/TV: dose dependent manner
  TbTh: dose dependent manner

## VIP D10: SEQ ID NO: 8, Vasoactive intestinal peptide conjugated with D10 (HHSDAVFTDNYTRLRKQMAVKKYLNSILNDDDDDDDDDD; Vasoactive intestinal peptide with D10 (VIP D10))
[1]; 4 weeks, 1 nmol/day
  BV/TV: healing was reflected as BV/TV
  TbTh: healing was reflected

## pBMP9 D10: SEQ ID NO: 6, peptide from knuckle epitope of human BMP-9 targeted with D10 (CGGKVGKACCVPTKLSPISVLYK[mp4″]DDDDDDDDDD; cysteine pairing not given here)
[1]; [7]
  BV (bone volume): dose dependent manner
  BV/TV: dose dependent manner
